According to US8415469B2, “Compounds and methods for kinase modulation, and indications therefor” (Plexxikon Inc., priority 2005, dated 2013):

Columns and labels:
Type in all cases: biochemical
Yes = target: T1, Yes (Homo sapiens, UniProt P07947); experiment: Z'-Lyte FRET kinase assay (Invitrogen), Yes; conditions: read-out: IC50, activity toward kinase Yes
T1 construct: purchased Invitrogen (Carlsbad, Calif.), screening service
Excerpt: The effect of potential modulators of kinase activity can be measured in a variety of different assays known in the art. For example, direct radiometric, indirect FRET or AlphaScreen assays may be used to assess the level of phosphorylation of a substrate in the presence of test compounds in order to determine the inhibitory affect of the compound on the kinase. Invitrogen (Carlsbad, Calif.) uses a FRET based assay for Btk, EGFR, EphB2, Flt3, lrak4, Kdr, MAP2K1, MAPKAPK2, PDGFRB, PKC theta, Stk6 and Yes. For these assays, compounds of the invention were screened by Invitrogen using Z′-Lyte™ kinase assay.
Briefly, the Invitrogen kinase assay involves use of a specific peptide substrate optimized for each kinase, containing a fluorophore at each end that make up the FRET pair. The peptide sensitivity to proteolytic cleavage depends on phosphorylation of the peptide. Non-phosphorylated peptide is cleaved by a protease while peptide phosphorylated by the kinase is not cleaved. Cleavage of the peptide disrupts the FRET between the donor (coumarin) and acceptor (fluorescein) fluorophores, resulting in an increase in the ratio of donor emission to acceptor emission. The emission ratio of coumarin to fluorescein is used to assess the reaction progress. The extent of phosphorylation is determined from the emission ratio, which is low when the kinase is active (phosphorylated peptide is not cleaved, FRET pair connected) or higher for inhibited kinase (non-phosphorylated peptide is cleaved, FRET pair separated). Thus, the assay involves a kinase reaction in the presence of varying concentrations of a given compound, a development reaction with site specific protease, and detection of the fluorescent emission ratio of coumarin and fluorscein. […] Reaction conditions for each kinase are determined to provide optimal reaction times, incubation temperature, kinase and ATP concentrations. Test samples are made up in 1× kinase buffer (50 mM HEPES pH 7.5, 50 mM MgCl2, 5 mM EGTA, 0.05% BRIJ-35) and compound at desired concentration prepared in DMSO such that the final DMSO is 1%. […] Typically, assay plates are prepared to 10 μl final volume per sample, adding 2.5 μl of compound at 4× the desired concentration in 4% DMSO (serial dilution of compound provides concentration curve), 5 μl of the desired kinase mixed with Z′-LYTE™ peptide substrate (2× in 2× kinase buffer, final peptide at 2 μM), and 2.5 μl of 4×ATP solution. All kinase except for MAP2K1 were at 10 μM ATP in the kinase reaction, while MAP2K1 was at 100 μM. Samples are mixed and the kinase reaction is incubated 1 hour at room temperature, after which 5 μl of development solution is added and mixed. After incubation for another 1 hour at room temperature, 5 μl of stop reagent is added to each sample and mixed. The fluorescence signals are measured to determine the emission ratio.

FGFR1 = target: T2, FGFR1 (Homo sapiens, UniProt P11362, C488A/C584S); experiment: AlphaScreen kinase assay, FGFR1; conditions: read-out: IC50, activity toward kinase FGFR
T2 construct: P1351.pET N6 BI-PTP FGFR A458-E765-X C488A, C584S; made in house; host or cells: E. coli (PTP1B co-expressed)

Fms = target: T3, Fms (Homo sapiens, UniProt P07333); experiment: AlphaScreen kinase assay, Fms; conditions: read-out: IC50, activity toward kinase Fms
T3 construct: purchased Upstate Biotechnology

Kdr = target: T4, Kdr (Homo sapiens, UniProt P35968); experiment: Z'-Lyte FRET kinase assay (Invitrogen), Kdr; conditions: read-out: IC50, activity toward kinase Kdr
T4 construct: purchased Invitrogen (assay run by Invitrogen)

Ret = target: T5, Ret (Homo sapiens, UniProt P07949); experiment: AlphaScreen kinase assay, Ret; conditions: read-out: IC50, activity toward kinase Ret
T5 construct: P1378.pET-SF BI-PTP RET H661-R1012 HIS; made in house
T5 sequence (P07949 with tags, fused parts or gaps): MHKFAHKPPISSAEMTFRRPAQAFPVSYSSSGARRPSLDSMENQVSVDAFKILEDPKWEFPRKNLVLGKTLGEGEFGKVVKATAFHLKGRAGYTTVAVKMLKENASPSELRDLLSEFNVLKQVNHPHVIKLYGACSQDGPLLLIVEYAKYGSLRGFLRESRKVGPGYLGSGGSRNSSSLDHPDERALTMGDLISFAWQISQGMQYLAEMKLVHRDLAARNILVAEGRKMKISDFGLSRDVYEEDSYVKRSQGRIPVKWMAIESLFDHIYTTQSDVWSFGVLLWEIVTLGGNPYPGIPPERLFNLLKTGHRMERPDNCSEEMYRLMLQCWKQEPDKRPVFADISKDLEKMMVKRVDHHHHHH

B-Raf V600E = target: T6, B-Raf V600E (Homo sapiens, UniProt P15056, V600E); experiment: AlphaScreen kinase assay, B-Raf V600E; conditions: read-out: IC50, activity toward kinase B-Raf V600E
T6 construct: P4254. pFastBacBD-CDC37 BRAF D437-K722-X, V600E; His6 with pFastBac HT leader (TEV site) (N); made in house; host or cells: Sf9 (baculovirus; chaperone CDC37 co-expressed)

Kit = target: T7, Kit (Homo sapiens, UniProt P10721); experiment: AlphaScreen kinase assay, Kit; conditions: read-out: IC50, activity toward kinase Kit
T7 construct: P1332.N6 BI PTP KIT M552-K948-X COD; His6 (N); made in house; host or cells: E. coli (PTP1B co-expressed)

B-Raf = target: T8, B-Raf (Homo sapiens, UniProt P15056); experiment: AlphaScreen kinase assay, B-Raf; conditions: read-out: IC50, activity toward kinase B-Raf
T8 construct: purchased Upstate Biotechnology

Src = target: T9, Src (Homo sapiens, UniProt P12931); experiment: AlphaScreen kinase assay, Src; conditions: read-out: IC50, activity toward kinase Src
T9 construct: P1144. pET-N6 BI-PTP SRC V86-L536-X; made in house

Fak = target: T10, Fak (Homo sapiens, UniProt Q05397); experiment: AlphaScreen kinase assay, Fak; conditions: read-out: IC50, activity toward kinase Fak
T10 construct: P1358.pFastBacHtb FAK S411-Q686-X; His6 with pFastBacHTb leader (TEV site) (N); made in house; host or cells: Sf9 (baculovirus)

Stk6 = target: T11, Stk6 (Homo sapiens, UniProt O14965); experiment: Z'-Lyte FRET kinase assay (Invitrogen), Stk6; conditions: read-out: IC50, activity toward kinase Stk6
T11 construct: purchased Invitrogen (Carlsbad, Calif.), screening service
T11 sequence (O14965 1-403): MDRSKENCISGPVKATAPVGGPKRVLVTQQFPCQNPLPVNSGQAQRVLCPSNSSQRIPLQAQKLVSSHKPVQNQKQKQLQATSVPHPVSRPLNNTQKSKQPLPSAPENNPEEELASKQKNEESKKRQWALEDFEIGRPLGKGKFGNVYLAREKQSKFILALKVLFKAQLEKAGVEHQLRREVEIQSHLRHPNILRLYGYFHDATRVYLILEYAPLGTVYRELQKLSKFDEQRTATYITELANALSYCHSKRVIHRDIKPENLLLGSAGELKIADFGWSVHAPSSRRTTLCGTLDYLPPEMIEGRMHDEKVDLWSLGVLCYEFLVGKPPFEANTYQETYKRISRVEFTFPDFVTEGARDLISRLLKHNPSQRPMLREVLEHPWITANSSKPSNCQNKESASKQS

c-Raf-1 = target: T12, c-Raf-1 (Homo sapiens, UniProt P04049); experiment: AlphaScreen kinase assay, c-Raf-1; conditions: read-out: IC50, activity toward kinase c-Raf-1
T12 construct: purchased Upstate Biotechnology

Flt1 = target: T13, Flt1 (Homo sapiens, UniProt P17948); experiment: AlphaScreen kinase assay, Flt1; conditions: read-out: IC50, activity toward kinase Flt1
T13 construct: P1826.pETN6 BI-PTP FLT1 M799-D1165-X WT; His6 (N); made in house; host or cells: E. coli (PTP1B co-expressed)
T13 sequence (P17948 with tags, fused parts or gaps): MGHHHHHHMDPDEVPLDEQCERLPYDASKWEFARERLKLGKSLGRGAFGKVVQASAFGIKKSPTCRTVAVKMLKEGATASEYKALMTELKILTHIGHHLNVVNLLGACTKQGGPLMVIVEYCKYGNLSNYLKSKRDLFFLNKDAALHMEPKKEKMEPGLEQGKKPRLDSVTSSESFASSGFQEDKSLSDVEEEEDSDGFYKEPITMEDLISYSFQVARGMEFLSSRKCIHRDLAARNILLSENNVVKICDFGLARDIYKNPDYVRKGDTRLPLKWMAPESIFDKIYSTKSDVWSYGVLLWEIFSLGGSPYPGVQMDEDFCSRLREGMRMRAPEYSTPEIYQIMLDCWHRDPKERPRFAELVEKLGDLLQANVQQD

Jnk3 = target: T14, Jnk3 (Homo sapiens, UniProt P53779); experiment: AlphaScreen kinase assay, Jnk3; conditions: read-out: IC50, activity toward kinase Jnk3
T14 construct: purchased Upstate Biotechnology

Pyk2 = target: T15, Pyk2 (Homo sapiens, UniProt Q14289); experiment: AlphaScreen kinase assay, Pyk2; conditions: read-out: IC50, activity toward kinase Pyk2
T15 construct: purchased Upstate Biotechnology
T15 sequence (Q14289 whole entry): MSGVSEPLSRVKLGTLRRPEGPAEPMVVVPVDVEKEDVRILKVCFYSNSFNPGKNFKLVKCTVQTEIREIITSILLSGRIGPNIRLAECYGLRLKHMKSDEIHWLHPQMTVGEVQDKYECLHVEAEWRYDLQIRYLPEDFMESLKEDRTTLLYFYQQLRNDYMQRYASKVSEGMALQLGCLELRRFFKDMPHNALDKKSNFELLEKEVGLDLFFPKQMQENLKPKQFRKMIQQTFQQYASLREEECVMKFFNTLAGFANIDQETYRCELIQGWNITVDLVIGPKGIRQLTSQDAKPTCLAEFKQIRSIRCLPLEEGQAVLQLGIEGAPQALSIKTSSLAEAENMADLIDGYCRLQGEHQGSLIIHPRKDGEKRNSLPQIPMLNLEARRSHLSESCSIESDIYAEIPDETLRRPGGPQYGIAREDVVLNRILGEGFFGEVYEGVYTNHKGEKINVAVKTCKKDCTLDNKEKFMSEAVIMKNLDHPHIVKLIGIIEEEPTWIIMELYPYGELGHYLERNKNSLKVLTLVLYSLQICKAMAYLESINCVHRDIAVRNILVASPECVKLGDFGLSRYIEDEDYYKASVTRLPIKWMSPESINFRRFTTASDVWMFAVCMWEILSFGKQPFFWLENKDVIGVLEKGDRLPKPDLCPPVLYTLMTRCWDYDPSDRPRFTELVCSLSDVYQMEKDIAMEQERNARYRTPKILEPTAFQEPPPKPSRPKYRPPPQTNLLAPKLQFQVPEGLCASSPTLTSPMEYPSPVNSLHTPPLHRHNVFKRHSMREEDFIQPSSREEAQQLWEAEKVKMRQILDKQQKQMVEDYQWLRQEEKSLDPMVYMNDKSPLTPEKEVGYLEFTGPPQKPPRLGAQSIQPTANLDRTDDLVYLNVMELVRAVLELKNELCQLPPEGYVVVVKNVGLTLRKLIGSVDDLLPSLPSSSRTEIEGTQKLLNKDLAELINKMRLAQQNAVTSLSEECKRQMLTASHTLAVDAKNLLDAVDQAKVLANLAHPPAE

T12 sequence (P04049 whole entry): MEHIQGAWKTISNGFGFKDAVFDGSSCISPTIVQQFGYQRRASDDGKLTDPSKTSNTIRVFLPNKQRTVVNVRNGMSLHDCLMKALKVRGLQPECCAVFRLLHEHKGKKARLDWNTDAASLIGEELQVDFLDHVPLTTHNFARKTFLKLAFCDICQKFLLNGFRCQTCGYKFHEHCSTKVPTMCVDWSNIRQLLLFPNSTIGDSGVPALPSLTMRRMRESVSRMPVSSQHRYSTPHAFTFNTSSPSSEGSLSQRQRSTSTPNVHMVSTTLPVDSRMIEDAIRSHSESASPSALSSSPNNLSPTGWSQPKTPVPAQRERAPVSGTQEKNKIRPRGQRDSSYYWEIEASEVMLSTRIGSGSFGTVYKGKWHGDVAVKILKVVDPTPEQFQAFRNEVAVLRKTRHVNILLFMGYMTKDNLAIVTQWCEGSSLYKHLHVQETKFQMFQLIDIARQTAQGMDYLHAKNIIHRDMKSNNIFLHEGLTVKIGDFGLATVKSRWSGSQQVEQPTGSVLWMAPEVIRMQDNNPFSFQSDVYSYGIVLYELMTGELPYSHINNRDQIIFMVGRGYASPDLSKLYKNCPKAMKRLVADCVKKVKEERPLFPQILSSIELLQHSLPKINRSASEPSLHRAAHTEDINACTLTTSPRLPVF
T8 sequence (P15056 whole entry): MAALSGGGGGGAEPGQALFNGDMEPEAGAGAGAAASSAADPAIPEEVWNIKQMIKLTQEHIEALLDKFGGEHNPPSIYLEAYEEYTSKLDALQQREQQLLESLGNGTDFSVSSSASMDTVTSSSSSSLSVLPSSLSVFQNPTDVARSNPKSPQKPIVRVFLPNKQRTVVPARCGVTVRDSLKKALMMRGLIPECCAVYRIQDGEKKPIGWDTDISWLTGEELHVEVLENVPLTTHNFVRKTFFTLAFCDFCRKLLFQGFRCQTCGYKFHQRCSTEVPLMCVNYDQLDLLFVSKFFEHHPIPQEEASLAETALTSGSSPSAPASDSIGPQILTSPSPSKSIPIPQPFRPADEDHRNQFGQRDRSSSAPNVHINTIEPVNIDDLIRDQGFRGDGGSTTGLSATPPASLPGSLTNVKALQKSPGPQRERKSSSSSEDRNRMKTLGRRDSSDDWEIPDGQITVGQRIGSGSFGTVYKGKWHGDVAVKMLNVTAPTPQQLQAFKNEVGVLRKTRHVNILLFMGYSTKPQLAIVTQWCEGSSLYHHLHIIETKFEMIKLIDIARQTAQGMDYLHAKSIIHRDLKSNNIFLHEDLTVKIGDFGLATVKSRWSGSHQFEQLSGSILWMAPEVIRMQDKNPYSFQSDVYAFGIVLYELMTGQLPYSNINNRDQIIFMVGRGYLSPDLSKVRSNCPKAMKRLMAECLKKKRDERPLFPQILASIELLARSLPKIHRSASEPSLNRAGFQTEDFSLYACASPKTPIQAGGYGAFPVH
T9 sequence (P12931 with tags, fused parts or gaps): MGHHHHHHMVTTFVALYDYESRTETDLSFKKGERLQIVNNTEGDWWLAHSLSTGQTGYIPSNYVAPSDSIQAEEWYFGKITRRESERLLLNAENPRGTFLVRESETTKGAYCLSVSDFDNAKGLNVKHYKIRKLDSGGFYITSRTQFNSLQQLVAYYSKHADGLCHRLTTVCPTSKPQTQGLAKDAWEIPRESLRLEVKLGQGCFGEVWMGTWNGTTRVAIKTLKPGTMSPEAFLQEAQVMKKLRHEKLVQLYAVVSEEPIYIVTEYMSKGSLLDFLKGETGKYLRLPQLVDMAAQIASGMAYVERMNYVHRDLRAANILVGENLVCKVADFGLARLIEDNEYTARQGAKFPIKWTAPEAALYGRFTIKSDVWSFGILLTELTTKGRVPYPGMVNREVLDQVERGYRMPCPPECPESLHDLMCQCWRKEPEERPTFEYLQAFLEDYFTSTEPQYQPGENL
T6 sequence (P15056 with tags, fused parts or gaps V600E): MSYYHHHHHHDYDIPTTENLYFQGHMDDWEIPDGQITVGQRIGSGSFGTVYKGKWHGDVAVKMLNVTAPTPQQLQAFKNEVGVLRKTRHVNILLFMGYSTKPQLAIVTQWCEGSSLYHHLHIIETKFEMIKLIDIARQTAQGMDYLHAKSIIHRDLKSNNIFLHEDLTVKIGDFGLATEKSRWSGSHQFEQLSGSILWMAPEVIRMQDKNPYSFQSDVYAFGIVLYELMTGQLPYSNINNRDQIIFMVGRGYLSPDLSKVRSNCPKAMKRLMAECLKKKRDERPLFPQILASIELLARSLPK
T1 sequence (P07947 whole entry): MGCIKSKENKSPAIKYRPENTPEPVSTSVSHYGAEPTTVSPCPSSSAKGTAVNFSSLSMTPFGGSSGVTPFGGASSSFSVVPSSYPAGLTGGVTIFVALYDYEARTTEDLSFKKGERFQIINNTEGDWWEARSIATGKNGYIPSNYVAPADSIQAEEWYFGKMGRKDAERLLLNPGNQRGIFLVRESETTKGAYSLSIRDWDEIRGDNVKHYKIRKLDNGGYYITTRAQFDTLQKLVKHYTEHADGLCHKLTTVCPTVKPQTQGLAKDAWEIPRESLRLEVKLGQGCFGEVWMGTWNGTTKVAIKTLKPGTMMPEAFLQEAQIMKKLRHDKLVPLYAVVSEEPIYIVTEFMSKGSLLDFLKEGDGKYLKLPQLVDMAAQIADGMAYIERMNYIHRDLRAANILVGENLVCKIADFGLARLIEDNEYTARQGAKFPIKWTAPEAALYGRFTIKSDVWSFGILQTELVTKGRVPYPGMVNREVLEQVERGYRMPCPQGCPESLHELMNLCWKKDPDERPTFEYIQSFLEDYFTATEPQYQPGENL
T3 sequence (P07333 20-972): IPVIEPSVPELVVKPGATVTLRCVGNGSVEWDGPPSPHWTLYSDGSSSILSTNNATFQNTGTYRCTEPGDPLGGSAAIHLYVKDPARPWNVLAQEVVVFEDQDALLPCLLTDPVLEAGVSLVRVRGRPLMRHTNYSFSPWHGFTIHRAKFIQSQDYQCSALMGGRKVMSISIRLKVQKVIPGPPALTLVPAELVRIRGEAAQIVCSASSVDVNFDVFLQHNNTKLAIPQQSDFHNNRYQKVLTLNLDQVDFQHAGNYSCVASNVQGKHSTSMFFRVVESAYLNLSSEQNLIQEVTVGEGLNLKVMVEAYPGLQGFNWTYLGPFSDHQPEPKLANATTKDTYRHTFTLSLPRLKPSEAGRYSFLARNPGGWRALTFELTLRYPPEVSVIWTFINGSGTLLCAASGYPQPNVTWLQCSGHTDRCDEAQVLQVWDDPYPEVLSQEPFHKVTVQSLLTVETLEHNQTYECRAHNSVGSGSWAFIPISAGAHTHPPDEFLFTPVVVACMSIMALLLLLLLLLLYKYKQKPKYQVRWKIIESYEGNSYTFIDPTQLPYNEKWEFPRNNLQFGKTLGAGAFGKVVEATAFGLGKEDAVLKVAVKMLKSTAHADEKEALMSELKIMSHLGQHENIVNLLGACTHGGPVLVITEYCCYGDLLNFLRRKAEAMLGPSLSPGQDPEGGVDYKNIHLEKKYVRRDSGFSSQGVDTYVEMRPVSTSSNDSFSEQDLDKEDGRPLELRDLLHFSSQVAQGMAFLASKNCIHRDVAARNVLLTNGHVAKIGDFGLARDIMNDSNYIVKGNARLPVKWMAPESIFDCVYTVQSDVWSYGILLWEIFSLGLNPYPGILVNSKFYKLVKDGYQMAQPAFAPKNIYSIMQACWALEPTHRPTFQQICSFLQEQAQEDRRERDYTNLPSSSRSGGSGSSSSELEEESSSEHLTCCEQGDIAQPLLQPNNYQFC
T2 sequence (P11362 458-765 C488A/C584S): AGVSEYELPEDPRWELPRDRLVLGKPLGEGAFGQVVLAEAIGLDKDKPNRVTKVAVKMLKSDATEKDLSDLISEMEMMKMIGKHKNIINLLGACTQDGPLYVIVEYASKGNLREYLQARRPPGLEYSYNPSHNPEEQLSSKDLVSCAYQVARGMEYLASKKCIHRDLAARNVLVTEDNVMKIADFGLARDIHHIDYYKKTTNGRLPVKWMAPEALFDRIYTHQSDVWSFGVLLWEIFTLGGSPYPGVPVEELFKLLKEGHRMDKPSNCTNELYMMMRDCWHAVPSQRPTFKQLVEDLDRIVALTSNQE

IC50 (Yes) [µM] | IC50 (FGFR1) [µM] | IC50 (Fms) [µM] | IC50 (Kdr) [µM] | IC50 (B-Raf V600E) [µM] | IC50 (B-Raf) [µM] | IC50 (Stk6) [µM] | Structure (SMILES) | also measured
≤ 10 | ≤ 10 | ≤ 10 | ≤ 10 | ≤ 10 | – | – | COc1ccc(F)c(C(=O)c2c[nH]c3nccc(Cl)c23)c1 [Compound P-0175] | IC50 (Ret): ≤ 10 µM; IC50 (Kit): ≤ 10 µM
≤ 10 | ≤ 10 | – | – | ≤ 10 | ≤ 10 | – | CC(=O)Oc1cccc(C(=O)c2c[nH]c3ncc(Br)cc23)c1C [Compound P-0271] | –
≤ 10 | – | – | – | – | – | – | COc1cccc(-c2ccc3c(CNS(=O)(=O)c4ccc(C)cc4)c[nH]c3n2)c1 [Compound P-0209] | IC50 (Src): ≤ 10 µM; IC50 (Fak): ≤ 10 µM
≤ 10 | – | – | – | ≤ 10 | – | ≤ 10 | COc1ccc(-c2cnc3[nH]cc(C#Cc4ccccc4)c3c2)cc1OC [Compound P-0153] | –
≤ 10 | – | – | ≤ 10 | – | – | – | COc1cccc(C(O)c2c[nH]c3ncc(-c4cccs4)cc23)c1 (stereo not drawn) [Compound P-0161] | –
≤ 10 | – | – | ≤ 10 | ≤ 10 | ≤ 10 | ≤ 10 | CS(=O)(=O)Nc1ccc(F)c(C(=O)c2c[nH]c3ncc(Br)cc23)c1F [Compound P-0162, N-[3-(5-Bromo-1H-pyrrolo[2,3-b]pyridine-3-carbonyl)-2,4-difluoro-phenyl]-methanesulfonamide] | IC50 (c-Raf-1): ≤ 10 µM
≤ 10 | – | ≤ 10 | – | – | – | – | O=C(c1ccc(NCc2cccc(F)c2)nc1)c1c[nH]c2ncccc12 [Compound P-0327] | –
≤ 10 | – | – | ≤ 10 | – | – | – | O=C(c1cccc(O)c1)c1c[nH]c2ncc(-c3ccccc3)cc12 [Compound P-0230] | –
≤ 10 | – | ≤ 10 | – | ≤ 10 | – | ≤ 10 | O=C(c1ccc(NCc2cccs2)nc1)c1c[nH]c2ncccc12 [Compound P-0237] | IC50 (Src): ≤ 10 µM
≤ 10 | ≤ 10 | ≤ 10 | – | ≤ 10 | – | – | O=C(c1ccc(NCc2ccccc2)nc1)c1c[nH]c2ncccc12 [Compound P-0483] | IC50 (Flt1): ≤ 10 µM; IC50 (Src): ≤ 10 µM; IC50 (Jnk3): ≤ 10 µM
≤ 10 | – | – | – | – | – | ≤ 10 | C(=C\c1c[nH]c2ncccc12)/c1ccc(NCc2ccccc2)cc1 [Compound P-0283] | –
≤ 10 | – | – | ≤ 10 | – | ≤ 10 | ≤ 10 | COC(=O)Nc1ccc(F)c(C(O)c2c[nH]c3ncc(-c4cccnc4)cc23)c1F (stereo not drawn) [Compound P-0065, {2,4-difluoro-3-[hydroxy-(5-pyridin-3-yl-1H-pyrrolo[2,3b]pyridin-3-yl)-methyl]-phenyl}-carbamic acid methyl ester] | IC50 (Ret): ≤ 10 µM
≤ 10 | – | – | – | ≤ 10 | ≤ 10 | – | O=C(Nc1ccc(F)c(C(O)c2c[nH]c3ncc(-c4cccnc4)cc23)c1F)OCc1ccccc1 (stereo not drawn) [Compound P-0095, {2,4-Difluoro-3-[hydroxy-(5-pyridin-3-yl-1H-pyrrolo[2,3b]pyridin-3-yl)-methyl]-phenyl}-carbamic acid benzyl ester] | IC50 (Ret): ≤ 10 µM; IC50 (Pyk2): ≤ 10 µM
≤ 10 | – | – | – | ≤ 10 | ≤ 10 | ≤ 10 | CCCS(=O)(=O)Nc1ccc(F)c(C(O)c2c[nH]c3ncc(Br)cc23)c1F (stereo not drawn) [Compound P-0188, Propane-1-sulfonic acid {3-[(5-bromo-1H-pyrrolo[2,3-b]pyridin-3-yl)-hydroxy-methyl]-2,4-difluoro-phenyl}-amide] | IC50 (c-Raf-1): ≤ 10 µM; IC50 (Pyk2): ≤ 10 µM
≤ 10 | ≤ 10 | ≤ 10 | ≤ 10 | ≤ 10 | – | ≤ 10 | c1csc(CNc2ccc(Cc3c[nH]c4ncccc34)cn2)c1 [Compound P-0129] | –
≤ 10 | ≤ 10 | ≤ 10 | – | ≤ 10 | ≤ 10 | – | CS(=O)(=O)Nc1ccc(F)c(C(=O)c2c[nH]c3ncc(-c4cccc(S(C)(=O)=O)c4)cc23)c1F [Compound P-0210] | IC50 (c-Raf-1): ≤ 10 µM; IC50 (Src): ≤ 10 µM; IC50 (Fak): ≤ 10 µM; IC50 (Ret): ≤ 10 µM; IC50 (Kit): ≤ 10 µM
